The target in test [1] is HCV NS3 protease genotype 3a (3A-1) (Hepatitis C virus genotype 3a, UniProt Q81258). Kind of test: HCV NS3 protease time-resolved fluorescence (TRF) assay, genotype 3a. In kind it is biochemical. As to conditions: Ki 3a. In outline: (§1)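 NS3/NS4A protease was pre-incubated 10 min with inhibitor in 50 mM HEPES pH 7.5, 150 mM NaCl, 15% glycerol, 0.15% Triton X-100, 10 mM DTT, 0.1% PEG 8000. TRF peptide substrate (25 nM final) was hydrolysed for 6 h at room temperature. IC50 came from four-parameter fits.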

For test [2], the target named is T1, HCV genotype 1b (BK) NS3 modified enzyme with a R155K mutation (Hepatitis C virus genotype 1b, UniProt P26663, R1181K).
T1 construct: HCV genotype 1b (BK) NS3 modified enzyme
As to the kind of experiment: HCV NS3 protease time-resolved fluorescence (TRF) assay, genotype 1b R155K. The test is classed as biochemical. As to conditions: Ki 1b R155K, genotype 1b (BK) NS3 R155K; single value. In outline: as §1

The text below walks through data of patent US9328138B2 (priority 2011, dated 2016).

pKi: −log10 of the molar value.

As for `C=C[C@@H]1C[C@]1(NC(=O)[C@@H]1C[C@@H]2CN1C(=O)[C@H](C1CCCC1)NC(=O)O[C@@H]1CCC[C@H]1CC/C=C/Cc1c(nc3ccccc3c1OCCN1CC3(CCC3)C1)O2)C(=O)NS(=O)(=O)C1(C)CC1` [Example 86, (3aR,7S,10S,12R,21E,24aS)-19-[2-(2-azaspiro[3.3]hept-2-yl)ethoxy]-7-cyclopentyl-N-[(1R,2S)-2-ethenyl-1-{[(1-methylcyclopropyl)sulfonyl]carbamoyl}cyclopropyl]-5,8-dioxo-1,2,3,3a,5,6,7,8,11,12,20,23,24,24a-tetradecahydro-10H-9,12-methanocyclopenta[18,19] [1,10,3,6]dioxadiazacyclononadecino [11,12-b]quinoline-10-carboxamide], the pKi in test [1] was 8.36; in test [2], 9.64.
The like results for `C=C[C@@H]1C[C@]1(NC(=O)[C@@H]1C[C@@H]2CN1C(=O)[C@H](C1CCCC1)NC(=O)O[C@@H]1CCC[C@H]1CC/C=C/Cc1c(nc3ccccc3c1OCCCN1CCOCC1)O2)C(=O)NS(=O)(=O)C1CC1` [Example 87, (3aR,7S,10S,12R,21E,24aS)-7-cyclo pentyl-N-{(1R,2S)-1-[(cyclopropylsulfonyl)carbamoyl]-2-ethenylcyclopropyl}-19-[3-(morpholin-4-yl)propoxy]-5,8-dioxo-1,2,3,3a,5,6,7,8,11,12,20,23,24, 24a-tetradeca hydro-10H-9,12-methano cyclopenta[18,19][1,10,3,6] dioxadiazacyclononadecino [11,12-b]quinoline-10-carboxamide] were, in that order, 8.49 and 9.62.
`C=CC1C[C@]1(NC(=O)[C@@H]1C[C@@H]2CN1C(=O)[C@H](C1CCCC1)NC(=O)O[C@@H]1CCC[C@H]1CC/C=C/Cc1c(nc3ccccc3c1OCCCN1CCN(C)CC1)O2)C(=O)NS(=O)(=O)C1CC1` (stereo partly drawn) [Example 88, (3aR,7S,10S,12R,21E,24aS)-7-cyclo pentyl-N-{(1R,2S)-1-[(cyclo-propylsulfonyl)carbamoyl]-2-ethenylcyclopropyl}-19-[3-(4-methylpiperazin-1-yl)propoxy]-5,8-dioxo-1,2,3,3a,5,6,7,8,11,12,20,23,24,24a-tetradecahydro-10H-9,12-methano-cyclopenta[18,19][1,10,3,6]dioxa diazacyclononadecino[11,2-b]quinoline-10-carboxamide]: the figures for the pKi in test [1] and in test [2] were 8.36 and 9.47, respectively.
For `C=C[C@@H]1C[C@]1(NC(=O)[C@@H]1C[C@@H]2CN1C(=O)[C@H](C(C)(C)C)NC(=O)O[C@@H]1CCC[C@H]1CC/C=C/Cc1c(nc3ccccc3c1OCCCN1CCCC1=O)O2)C(=O)NS(=O)(=O)C1(C)CC1` [Example 89, (3aR,7S,10S,12R,21E,24aS)-7-tert-butyl-N-[(1R,2S)-2-ethenyl-1-{[(1-methycyclopropyl)sulfonyl]carbamoyl}cyclopropyl]-5,8-dioxo-19-[3-(2-oxopyrrolidin-1-yl)propoxy]-1,2,3,3a,5,6,7,8,11,12,20,23,24,24a-tetradecahydro-10H-9,12-methano-cyclopenta[18,19][1,10,3,6]dioxa diazacyclononadecino[11,12-b] quinoline-10-carboxamide] the same measures were 9.49 and 10.15.
For `C=C[C@@H]1C[C@]1(NC(=O)[C@@H]1C[C@@H]2CN1C(=O)[C@H](C(C)(C)C)NC(=O)O[C@@H]1CCC[C@H]1CC/C=C/Cc1c(nc3ccccc3c1OCCCOC)O2)C(=O)NS(=O)(=O)C1(C)CC1` [Example 90, (3aR,7S,10S,12R,21E,24aS)-7-tert-butyl-N-[(1R,2S)-2-ethenyl-1-{[(1-methylcyclopropyl)sulfonyl]carbamoyl}cyclopropyl]-19-(3-methoxypropoxy)-5,8-dioxo-1,2,3,3a,5,6,7,8,11,12,20,23,24,24a-tetradecahydro-10H-9,12-methanocyclopenta[18,19][1,10,3,6] dioxadiazacyclononadecino [11,12-b]quinoline-10-carboxamide] the same measures were 8.80 and 9.82.
